Source: patent US5753617A, “Peptide inhibitors of cellular adhesion” (Centocor, Inc., priority 1995, dated 1998)
Where two headings read alike, the source gives them in different places. Where a SMILES comes first, the peptide text is derived from it. Bridges are numbered along the chain shown (N, C = ends). [ ]: non-standard residue; d: D form. Phe(4-Cl) = N[C@@H](Cc1ccc(Cl)cc1)C(=O)O; Dap = NC[C@H](N)C(=O)O

How the values were obtained:
P-selectin = target: T1, P-selectin (Homo sapiens, UniProt P16109); assay: Inhibition of human neutrophil adhesion to purified P-selectin immobilized on plastic wells; type: cell-based; conditions: for IC50: inhibiting the binding of human neutrophils to P-selectin; for biological activity / inhibiting neutrophil adhesion to P-selectin (result in words): human neutrophils, purified human P-selectin
T1 construct: P-selectin is isolated from human platelet lysates; from tissue; host or cells: human platelets (outdated platelet packs from a blood bank)
T1 sequence (P16109 42-830): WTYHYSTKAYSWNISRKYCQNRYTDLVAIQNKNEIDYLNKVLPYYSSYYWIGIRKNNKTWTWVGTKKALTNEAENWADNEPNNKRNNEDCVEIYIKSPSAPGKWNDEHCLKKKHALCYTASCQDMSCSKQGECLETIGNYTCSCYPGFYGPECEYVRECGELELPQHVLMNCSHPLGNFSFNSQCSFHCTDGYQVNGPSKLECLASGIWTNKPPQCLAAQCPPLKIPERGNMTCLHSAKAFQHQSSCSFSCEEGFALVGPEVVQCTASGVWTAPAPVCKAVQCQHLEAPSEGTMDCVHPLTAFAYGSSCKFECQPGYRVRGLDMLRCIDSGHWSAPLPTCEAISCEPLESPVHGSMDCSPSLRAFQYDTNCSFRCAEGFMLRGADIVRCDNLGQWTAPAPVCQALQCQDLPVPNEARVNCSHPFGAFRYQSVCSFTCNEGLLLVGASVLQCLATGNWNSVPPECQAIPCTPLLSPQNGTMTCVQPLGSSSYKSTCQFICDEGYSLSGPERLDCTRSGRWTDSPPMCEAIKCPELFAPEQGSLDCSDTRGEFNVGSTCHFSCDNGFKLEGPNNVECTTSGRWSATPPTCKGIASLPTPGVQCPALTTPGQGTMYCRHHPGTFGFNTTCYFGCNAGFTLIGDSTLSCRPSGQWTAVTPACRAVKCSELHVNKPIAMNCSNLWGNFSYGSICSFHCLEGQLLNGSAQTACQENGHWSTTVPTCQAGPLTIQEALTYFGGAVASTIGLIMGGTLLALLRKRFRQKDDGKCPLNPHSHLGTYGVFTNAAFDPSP
Summary of the method: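 Isolated human neutrophils (2×10^5 per well) in HBSS with Ca2+/Mg2+ and HSA added to wells coated overnight at 4° C with platelet-derived P-selectin (5 micrograms/mL), HSA-blocked; 20 min at 22° C. Nonadherent cells removed by inverted centrifugation at 150 g; adherent cells quantified by myeloperoxidase activity.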

SMILES | IC50 (P-selectin) [µM] | other results
CC(C)[C@@H](NC(=O)[C@@H](Cc1c[nH]c2ccccc12)NC(=O)[C@H](NC(=O)[C@@H](Cc1c[nH]c2ccccc12)NC(=O)[C@H]1CSSC[C@@H](NC(=O)[C@@H](CCCCN)NC(=O)[C@H](N)CCCNC(=N)N)C(=O)NCC(=O)N[C@@H](Cc2ccccc2)C(=O)N1)[C@H](C)O)C(N)=O | – | ring closure, yield of all isomers (from CC(C)[C@@H](NC(=O)[C@@H](Cc1c[nH]c2ccccc12)NC(=O)[C@H](NC(=O)[C@@H](Cc1c[nH]c2ccccc12)NC(=O)[C@@H](CS)NC(=O)[C@H](Cc1ccccc1)NC(=O)CNC(=O)[C@@H](CS)NC(=O)[C@@H](CCCCN)NC(=O)[C@H](N)CCCNC(=N)N)[C@H](C)O)C(N)=O, disulfide bond, DMSO, water, 0.253 mM, 16.0 h): 10.8%
CC(C)[C@@H](NC(=O)[C@@H](Cc1c[nH]c2ccccc12)NC(=O)[C@H](NC(=O)[C@@H](Cc1c[nH]c2ccccc12)NC(=O)[C@H]1CSSC[C@@H](NC(=O)[C@@H](CCCCN)NC(=O)[C@H](N)CCCNC(=N)N)C(=O)NCCC(=O)N[C@@H](Cc2ccccc2)C(=O)N1)[C@H](C)O)C(N)=O | – | ring closure, yield of all isomers (from CC(C)[C@@H](NC(=O)[C@@H](Cc1c[nH]c2ccccc12)NC(=O)[C@H](NC(=O)[C@@H](Cc1c[nH]c2ccccc12)NC(=O)[C@@H](CS)NC(=O)[C@H](Cc1ccccc1)NC(=O)CCNC(=O)[C@@H](CS)NC(=O)[C@@H](CCCCN)NC(=O)[C@H](N)CCCNC(=N)N)[C@H](C)O)C(N)=O, disulfide bond, air, Cu wire, ammonium acetate pH 8.5, water, 0.842 mM, 22.0 h): 8.1%
CC(C)[C@H](NC(=O)[C@@H](Cc1c[nH]c2ccccc12)NC(=O)[C@H](NC(=O)[C@@H](Cc1c[nH]c2ccccc12)NC(=O)[C@H]1CSSC[C@@H](NC(=O)[C@@H](CCCCN)NC(=O)[C@H](N)CCCNC(=N)N)C(=O)NCC(=O)N[C@@H](Cc2ccccc2)C(=O)N1)[C@H](C)O)C(N)=O | – | ring closure, yield of all isomers (from CC(C)[C@H](NC(=O)[C@@H](Cc1c[nH]c2ccccc12)NC(=O)[C@H](NC(=O)[C@@H](Cc1c[nH]c2ccccc12)NC(=O)[C@@H](CS)NC(=O)[C@H](Cc1ccccc1)NC(=O)CNC(=O)[C@@H](CS)NC(=O)[C@@H](CCCCN)NC(=O)[C@H](N)CCCNC(=N)N)[C@H](C)O)C(N)=O, disulfide bond, DMSO, water, 0.161 mM): 9.4%
CC(C)[C@H](NC(=O)[C@H](Cc1c[nH]c2ccccc12)NC(=O)[C@@H](NC(=O)[C@H](Cc1c[nH]c2ccccc12)NC(=O)[C@@H]1CC(=O)NC[C@H](NC(=O)[C@H](CCCCN)NC(=O)[C@@H](N)CCCNC(=N)N)C(=O)NCC(=O)NCC(=O)N1)[C@@H](C)O)C(N)=O | – | ring closure, yield of all isomers (amide bond, BOP/HOBt/DIEA, NMP, 80.0 h, 9 steps): 8.5%
CC(C)[C@@H](NC(=O)[C@@H](Cc1c[nH]c2ccccc12)NC(=O)[C@H](NC(=O)[C@@H](Cc1c[nH]c2ccccc12)NC(=O)[C@H]1CSSC[C@@H](NC(=O)[C@@H](CCC(N)=O)NC(=O)[C@H](N)CCCNC(=N)N)C(=O)NCC(=O)N[C@@H](Cc2ccccc2)C(=O)N1)[C@H](C)O)C(N)=O [(111)] (H-[dR][dQ][dC]GF[dC][dW][dT][dW][dV]-NH2; disulfide 3-6) | 18.4 | –
CC(C)[C@@H](NC(=O)[C@@H](Cc1c[nH]c2ccccc12)NC(=O)[C@H](NC(=O)[C@@H](Cc1c[nH]c2ccccc12)NC(=O)[C@H]1CSSC[C@@H](NC(=O)[C@@H](CCC(=O)O)NC(=O)[C@H](N)CCCNC(=N)N)C(=O)NCC(=O)N[C@@H](Cc2ccccc2)C(=O)N1)[C@H](C)O)C(N)=O [(112)] (H-[dR][dE][dC]GF[dC][dW][dT][dW][dV]-NH2; disulfide 3-6) | 236 | –
CC(C)[C@@H](NC(=O)[C@@H](Cc1c[nH]c2ccccc12)NC(=O)[C@H](NC(=O)[C@@H](Cc1c[nH]c2ccccc12)NC(=O)[C@@H]1CSSC[C@H](NC(=O)[C@@H](CCCCN)NC(=O)[C@H](N)CCCNC(=N)N)C(=O)NCC(=O)NCC(=O)N1)[C@H](C)O)C(N)=O [(113)] (H-[dR][dK]CGGC[dW][dT][dW][dV]-NH2; disulfide 3-6) | 0.7 | –
CC(C)[C@@H](NC(=O)[C@@H](Cc1c[nH]c2ccccc12)NC(=O)[C@H](NC(=O)[C@@H](Cc1c[nH]c2ccccc12)NC(=O)[C@H]1CSSC[C@@H](NC(=O)[C@@H](CCCCN)NC(=O)[C@H](N)CCCNC(=N)N)C(=O)N[C@H](CCC(N)=O)C(=O)N[C@@H](CCC(N)=O)C(=O)N1)[C@H](C)O)C(N)=O [(114)] (H-[dR][dK][dC][dQ]Q[dC][dW][dT][dW][dV]-NH2; disulfide 3-6) | 12.1 | –
CC(C)[C@@H](NC(=O)[C@@H](Cc1c[nH]c2ccccc12)NC(=O)[C@H](NC(=O)[C@@H](Cc1c[nH]c2ccccc12)NC(=O)[C@H]1CSSC[C@@H](NC(=O)[C@@H](CCCCN)NC(=O)[C@H](N)CCCNC(=N)N)C(=O)NCC(=O)N[C@@H](Cc2ccc(Cl)cc2)C(=O)N1)[C@H](C)O)C(N)=O [(115)] (H-[dR][dK][dC]G[Phe(4-Cl)][dC][dW][dT][dW][dV]-NH2; disulfide 3-6) | 1.5 | –
CC(C)[C@@H](NC(=O)[C@@H](Cc1c[nH]c2ccccc12)NC(=O)[C@H](NC(=O)[C@@H](Cc1c[nH]c2ccccc12)NC(=O)[C@H]1CSSC[C@@H](NC(=O)[C@@H](CCCCN)NC(=O)[C@H](N)CCCNC(=N)N)C(=O)NCC(=O)N[C@H](C(C)C)C(=O)N1)[C@H](C)O)C(N)=O [(116)] (H-[dR][dK][dC]G[dV][dC][dW][dT][dW][dV]-NH2; disulfide 3-6) | 4.6 | –
CC(C)[C@@H](NC(=O)[C@@H](Cc1c[nH]c2ccccc12)NC(=O)[C@H](NC(=O)[C@@H](Cc1c[nH]c2ccccc12)NC(=O)[C@H]1CSSC[C@@H](NC(=O)[C@@H](CCCCN)NC(=O)[C@H](N)CC(=O)O)C(=O)NCC(=O)N[C@@H](Cc2ccccc2)C(=O)N1)[C@H](C)O)C(N)=O [(117)] (H-[dD][dK][dC]GF[dC][dW][dT][dW][dV]-NH2; disulfide 3-6) | 238 | –
CC[C@H](C)[C@@H]1NC(=O)[C@H](CCCCN)NC(=O)[C@@H](N)CCC(=O)NCCCC[C@@H](C(=O)N[C@@H](Cc2c[nH]c3ccccc23)C(=O)N[C@H](C(=O)N[C@@H](Cc2c[nH]c3ccccc23)C(=O)N[C@H](C(N)=O)C(C)C)[C@@H](C)O)NC(=O)CNC(=O)CNC1=O [Preferred peptide (1), Cyclo(glutamyl-lysyl-isoleucyl-glycyl-glycyl-lysyl)-tryptophyl-threonyl-tryptophyl-valine-amide] (H-EKIGGKWTWV-NH2; lactam 1-6) | 115 | –
CC(C)[C@H](NC(=O)[C@H](Cc1c[nH]c2ccccc12)NC(=O)[C@@H](NC(=O)[C@H](Cc1c[nH]c2ccccc12)NC(=O)[C@@H]1CC(=O)NC[C@H](NC(=O)[C@H](CCCCN)NC(=O)[C@@H](N)CCCNC(=N)N)C(=O)NCC(=O)NCC(=O)N1)[C@@H](C)O)C(N)=O [Preferred peptide (22), Arginyl-lysyl-cyclo(diaminopropionyl-glycyl-glycyl-aspartyl)-tryptophyl-threonyl-tryptophyl-valine-amide] (H-RK[Dap]GGDWTWV-NH2; lactam 3-6) | – | concentration at which active in inhibiting neutrophil adhesion to P-selectin (P-selectin; stated in text as 'active at'): 13 mM
CC[C@H](C)[C@H](NC(=O)[C@H](CCCCN)NC(=O)[C@@H](N)CCCNC(=N)N)C(=O)NCC(=O)NCC(=O)N[C@H]1CCCCNC(=O)CC[C@@H](C(N)=O)NC(=O)[C@H](Cc2c[nH]c3ccccc23)NC(=O)[C@H]([C@@H](C)O)NC(=O)[C@H](Cc2c[nH]c3ccccc23)NC1=O [SEQ ID NO:1, Arg-Lys-Ile-Gly-Gly-cyclo(Lys-Trp-Thr-Trp-Glu)-NH2] (H-RKIGGKWTWE-NH2; lactam 6-10) | – | biological activity / inhibiting neutrophil adhesion to P-selectin (result in words) (P-selectin): inactive
CC[C@H](C)[C@H](NC(=O)[C@H](CCCCN)NC(=O)[C@@H](N)CCCNC(=N)N)C(=O)NCC(=O)NCC(=O)N[C@H]1CCC(=O)NCCCC[C@@H](C(N)=O)NC(=O)[C@H](Cc2c[nH]c3ccccc23)NC(=O)[C@H]([C@@H](C)O)NC(=O)[C@H](Cc2c[nH]c3ccccc23)NC1=O [SEQ ID NO:2, Arg-Lys-Ile-Gly-Gly-cyclo(Glu-Trp-Thr-Trp-Lys)-NH2] (H-RKIGGEWTWK-NH2; lactam 6-10) | – | biological activity / inhibiting neutrophil adhesion to P-selectin (result in words) (P-selectin): inactive
CC(C)[C@H](NC(=O)[C@H](Cc1c[nH]c2ccccc12)NC(=O)[C@@H](NC(=O)[C@H](Cc1c[nH]c2ccccc12)NC(=O)[C@@H]1CNC(=O)C[C@H](NC(=O)[C@H](CCCCN)NC(=O)[C@@H](N)CCCNC(=N)N)C(=O)NCC(=O)NCC(=O)N1)[C@@H](C)O)C(N)=O [SEQ ID NO:3, Arg-Lys-cyclo(Asp-Gly-Gly-Dap)-Trp-Thr-Trp-Val-NH2] (H-RKDGG[Dap]WTWV-NH2; lactam 3-6) | – | biological activity / inhibiting neutrophil adhesion to P-selectin (result in words) (P-selectin): totally inactive
